Numbered stars: 1 amine (or outer) side, 2 acyl side, 3 side chain; on linkers, the order of the positions; unused ones are H or OH. Side chains are listed from the residue outwards. Ends that are not written are not given here. Peptide text beside a SMILES is read from it. * marks the point of attachment. C18 diacid = O=C(O)CCCCCCCCCCCCCCCCC(=O)*; γGlu = O=C(O)[C@H](CCC(=O)[*:2])N[*:1]; AEEA = NCCOCCOCC(=O)O
Tests used:
Mouse GLP-1R = target: T1, Mouse GLP-1R (Mus musculus, UniProt O35659); assay: In vitro GLP-1R activation, mouse receptor; assay type: cell-based; conditions: mean ± SD
T1 sequence (O35659 22-463): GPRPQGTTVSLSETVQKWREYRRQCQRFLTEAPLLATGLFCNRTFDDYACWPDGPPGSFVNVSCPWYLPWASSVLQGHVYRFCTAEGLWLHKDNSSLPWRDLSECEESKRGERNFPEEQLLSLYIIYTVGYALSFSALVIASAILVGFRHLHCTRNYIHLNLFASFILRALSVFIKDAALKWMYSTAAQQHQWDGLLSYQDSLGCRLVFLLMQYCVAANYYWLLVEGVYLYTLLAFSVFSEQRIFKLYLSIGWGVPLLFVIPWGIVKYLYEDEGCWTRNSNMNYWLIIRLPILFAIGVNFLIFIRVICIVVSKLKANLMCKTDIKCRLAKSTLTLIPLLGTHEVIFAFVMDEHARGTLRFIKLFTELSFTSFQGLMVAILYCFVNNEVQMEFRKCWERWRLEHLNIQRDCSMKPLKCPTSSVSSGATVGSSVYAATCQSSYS

Human GLP-1R = Human GLP-1R (Homo sapiens, UniProt P43220); assay: In vitro GLP-1R activation, human receptor; assay type: cell-based; conditions: mean ± SD
GLP-1R ECD = GLP-1R ECD (Homo sapiens, UniProt P43220); assay: SPR binding affinity for GLP-1R extracellular domain (Biacore 8K); conditions: Table 1, peptides 01-12
Protocol: Surface Plasmon Resonance (SPR) measurements were performed with Biacore 8K (GE Health, Boston, MA, USA) for evaluating the associating affinity peptides for GLP1R ECD. Experimental details were carried out according to the Biacore 8K user’s manual.

DIO mice [1] = assay: Hypoglycemic duration test in non-fasted DIO mice; assay type: in vivo; conditions: male DIO mice, not fasted, 25 nmol/kg single s.c., n = 6
Protocol: The antihyperglycemic efficacy of PEP20 was investigated in male DIO mice. The BGLs of PEP20 group decreased rapidly to the normoglycemic state (<15 mmol/L) in 1 h after the administration of 25 nmol/kg. […] BGLs were detected using a one-touch blood glucose meter. Glucose-lowering duration under 8.35 mmol/L BGL was also checked

[2] = test system: diet-induced obesity (DIO) mice; assay: Oral glucose tolerance test (glucoregulatory and insulin secretion assay) in DIO mice; assay type: in vivo; conditions: male DIO mice, n = 6
Protocol: Half hour after single dose injection of different samples, the mice were administrated with glucose (2.0 g/kg), and then the blood glucose and insulin levels were detected before and at 15, 30, 45, 60 and 120 min by the ELISA kit (Merck).

DIO mice [3] = assay: Chronic in vivo study, 4 weeks, DIO mice; conditions: 25 nmol/kg s.c. once daily for 4 weeks
Protocol: To further examine the therapeutic potential of PEP20, chronic in vivo studies were performed by a daily subcutaneous (s.c.) injection of PEP20 (25 nmol/kg) in DIO mice for 4 weeks. […] Body weight, food intake, and water consumption were measured daily. DIO mice were subjected to OGTT at week 0 and at week 4 to evaluate the advance of diabetic statuses. HbA1c were measured after the treatment using an AU680 automatic biochemical analyzer (Beckman Coulter, Fullerton, […]).

full-length GLP-1R = conditions: ref [23],[24]; cited from earlier work
Text: (§1) GLP-1R, is defined by seven transmembrane helices, an extracellular N terminus, and an intracellular C terminus, which is ligand binding via the extracellular and intracellular face, respectively, belongs to family B1 of the seven-transmembrane G protein-coupled receptors.

isolated ECD (GLP-1R) = conditions: ref [23],[24]; cited from earlier work
Text: as §1

Chain of Human GLP-1R (P43220 24-463): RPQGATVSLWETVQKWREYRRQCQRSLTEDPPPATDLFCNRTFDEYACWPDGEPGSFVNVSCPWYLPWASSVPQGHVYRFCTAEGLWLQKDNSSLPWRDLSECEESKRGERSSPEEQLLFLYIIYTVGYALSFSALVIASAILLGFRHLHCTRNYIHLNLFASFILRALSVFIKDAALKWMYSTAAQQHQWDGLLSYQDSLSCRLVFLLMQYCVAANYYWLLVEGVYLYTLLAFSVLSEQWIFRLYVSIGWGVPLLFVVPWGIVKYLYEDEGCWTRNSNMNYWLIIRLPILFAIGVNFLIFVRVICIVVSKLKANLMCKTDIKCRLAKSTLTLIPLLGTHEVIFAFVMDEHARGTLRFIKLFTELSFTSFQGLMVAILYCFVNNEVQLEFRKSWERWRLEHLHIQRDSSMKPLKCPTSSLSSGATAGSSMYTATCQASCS
Chain of GLP-1R ECD (P43220 24-139 limits assumed): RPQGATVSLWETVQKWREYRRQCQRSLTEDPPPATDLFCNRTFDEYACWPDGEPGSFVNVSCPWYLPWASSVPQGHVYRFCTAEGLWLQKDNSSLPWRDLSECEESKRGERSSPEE

Molecule: C[C@H](NC(=O)[C@H](CO)NC(=O)[C@@H]1CCCN1C(=O)[C@H](CO)NC(=O)[C@H](CO)NC(=O)[C@H](Cc1ccc(O)cc1)NC(=O)[C@H](Cc1ccccc1)NC(=O)[C@@H](N)Cc1ccccc1)C(=O)N[C@@H](Cc1ccc(O)cc1)C(=O)N[C@@H](CCCCNC(=O)COCCOCCNC(=O)COCCOCCNC(=O)CC[C@H](NC(=O)CCCCCCCCCCCCCCCCC(=O)O)C(=O)O)C(=O)N[C@@H](CCC(=O)O)C(=O)N[C@H](C(=O)NCC(=O)NCC(=O)N1CCC[C@H]1C(=O)N[C@@H](CO)C(=O)N[C@@H](CO)C(=O)NCC(=O)N[C@@H](C)C(=O)N1CCC[C@H]1C(=O)N1CCC[C@H]1C(=O)N1CCC[C@H]1C(=O)N[C@@H](CO)C(=O)O)[C@@H](C)O [PEP18]
- Emax (Mouse GLP-1R): 78 ± 3.5%
- Emax (Human GLP-1R): 78 ± 6.4%

Molecule: KQYSSPTAWLVG [PEP03]
- Kd (GLP-1R ECD): 1750 nM

Molecule: CC(C)C[C@H](NC(=O)[C@H](CCCCNC(=O)COCCOCCNC(=O)COCCOCCNC(=O)CC[C@H](NC(=O)CCCCCCCCCCCCCCCCC(=O)O)C(=O)O)NC(=O)[C@H](C)NC(=O)[C@H](CO)NC(=O)[C@@H]1CCCN1C(=O)[C@H](CO)NC(=O)[C@H](CO)NC(=O)[C@H](Cc1ccc(O)cc1)NC(=O)[C@H](Cc1ccccc1)NC(=O)[C@@H](N)Cc1ccccc1)C(=O)N[C@@H](CCC(=O)O)C(=O)N[C@H](C(=O)NCC(=O)NCC(=O)N1CCC[C@H]1C(=O)N[C@@H](CO)C(=O)N[C@@H](CO)C(=O)NCC(=O)N[C@@H](C)C(=O)N1CCC[C@H]1C(=O)N1CCC[C@H]1C(=O)N1CCC[C@H]1C(=O)N[C@@H](CO)C(=O)O)[C@@H](C)O [PEP17] (H-FFYSSPSAK([AEEA-AEEA-γGlu-C18 diacid])LETGGPSSGAPPPS-OH; N-terminus and C-terminus assumed)
- Emax (Mouse GLP-1R): 68 ± 5.9%
- Emax (Human GLP-1R): 79 ± 6.4%

Molecule: C[C@H](NC(=O)[C@H](CO)NC(=O)[C@@H]1CCCN1C(=O)[C@H](CO)NC(=O)[C@H](CO)NC(=O)[C@H](Cc1ccc(O)cc1)NC(=O)[C@H](Cc1ccccc1)NC(=O)[C@@H](N)Cc1ccccc1)C(=O)N[C@@H](Cc1ccc(O)cc1)C(=O)N[C@@H](CCCCN)C(=O)N[C@@H](CCC(=O)O)C(=O)N[C@H](C(=O)NCC(=O)NCC(=O)N1CCC[C@H]1C(=O)N[C@@H](CO)C(=O)N[C@@H](CO)C(=O)NCC(=O)N[C@@H](C)C(=O)N1CCC[C@H]1C(=O)N1CCC[C@H]1C(=O)N1CCC[C@H]1C(=O)N[C@@H](CO)C(N)=O)[C@@H](C)O [PEP14]
- Emax (Mouse GLP-1R): 150 ± 10.9%
- Emax (Human GLP-1R): 105 ± 9.2%

Molecule: FFYSSPSAYLEKGGPSSGAPPPS [PEP16]
- Emax (Mouse GLP-1R): 93 ± 9.3%
- Emax (Human GLP-1R): 92 ± 7.1%

Molecule: CC(C)C[C@H](NC(=O)[C@H](Cc1ccc(O)cc1)NC(=O)[C@H](C)NC(=O)[C@H](CO)NC(=O)[C@@H]1CCCN1C(=O)[C@H](CO)NC(=O)[C@H](CO)NC(=O)[C@H](Cc1ccc(O)cc1)NC(=O)[C@H](Cc1ccccc1)NC(=O)[C@@H](N)Cc1ccccc1)C(=O)N[C@@H](CCC(=O)O)C(=O)N[C@@H](CCCCNC(=O)COCCOCCNC(=O)COCCOCCNC(=O)CC[C@H](NC(=O)CCCCCCCCCCCCCCCCC(=O)O)C(=O)O)C(=O)NCC(=O)NCC(=O)N1CCC[C@H]1C(=O)N[C@@H](CO)C(=O)N[C@@H](CO)C(=O)NCC(=O)N[C@@H](C)C(=O)N1CCC[C@H]1C(=O)N1CCC[C@H]1C(=O)N1CCC[C@H]1C(=O)N[C@@H](CO)C(=O)O [PEP20] (H-FFYSSPSAYLEK([AEEA-AEEA-γGlu-C18 diacid])GGPSSGAPPPS-OH; N-terminus and C-terminus assumed)
- duration of glucose-lowering effect (DIO mice [1]; followed for 96 h): at least 96 h
- lowering of glucose level for 0–96 h (AUC0–96 h) compared with vehicle group (DIO mice [1]): 63.8%
- time to normoglycemic state (<15 mmol/L) after administration (DIO mice [1]): ≤ 1 h
- Emax (Mouse GLP-1R): 99 ± 7.2%
- plasma insulin concentrations from 15 to 60 min versus control ([2]; OGTT, 25 nmol/kg s.c., ELISA): significantly greater than those of the control group
- glucose-lowering percentage compared with vehicle control group ([2]; OGTT, 25 nmol/kg single s.c., glucose 2.0 g/kg): 60.2%
- blood glucose level (BGL) half an hour after glucose challenge ([2]; 25 nmol/kg single s.c., oral glucose 2.0 g/kg, vehicle 23.6 ± 3.1): 10.1 mmol/L
- Emax (Human GLP-1R): 98 ± 8.1%
- body weight gain (DIO mice [3]; n = 6): effectively suppressed
- decrease of OGTT AUC at 4 weeks compared with week 0 (DIO mice [3]; n = 6): 22.1%
- food intake (DIO mice [3]; n = 6): effectively suppressed
- HbA1c versus control group (DIO mice [3]; p < 0.001, n = 6): reduction

Molecule: FFYSSPSAYLKTGGPSSGAPPPS [PEP15]
- Emax (Mouse GLP-1R): 73 ± 6.4%
- Emax (Human GLP-1R): 78 ± 9.1%

Molecule: CC[C@H](C)[C@H](NC(=O)[C@H](Cc1ccccc1)NC(=O)[C@@H](N)CCC(=O)O)C(=O)N[C@@H](C)C(=O)N[C@H](C(=O)N[C@@H](C)C(=O)N[C@@H](Cc1c[nH]c2ccccc12)C(=O)N[C@@H](CC(C)C)C(=O)N[C@H](C(=O)N[C@@H](CCCCN)C(=O)N[C@@H](CCC(N)=O)C(=O)N[C@H](C(=O)O)[C@@H](C)O)C(C)C)[C@@H](C)O [PEP06]
- Kd (GLP-1R ECD): 2590 nM

Molecule: CC(C)C[C@H](NC(=O)[C@H](Cc1ccc(O)cc1)NC(=O)[C@H](CO)NC(=O)[C@H](CO)NC(=O)[C@@H](NC(=O)CNC(=O)[C@H](CCC(=O)O)NC(=O)[C@H](CO)NC(=O)[C@@H](NC(=O)[C@@H](N)Cc1ccccc1)[C@@H](C)O)[C@@H](C)O)C(=O)N[C@@H](CCC(=O)O)C(=O)N[C@H](C(=O)O)[C@@H](C)O [PEP04]
- Kd (GLP-1R ECD): 3990 nM

Molecule: CC(C)C[C@H](NC(=O)[C@H](Cc1ccc(O)cc1)NC(=O)[C@H](C)NC(=O)[C@H](CO)NC(=O)[C@@H]1CCCN1C(=O)[C@H](CO)NC(=O)[C@H](CO)NC(=O)[C@H](Cc1ccc(O)cc1)NC(=O)[C@H](Cc1ccccc1)NC(=O)[C@@H](N)Cc1ccccc1)C(=O)N[C@@H](CCCCNC(=O)COCCOCCNC(=O)COCCOCCNC(=O)CC[C@H](NC(=O)CCCCCCCCCCCCCCCCC(=O)O)C(=O)O)C(=O)N[C@H](C(=O)NCC(=O)NCC(=O)N1CCC[C@H]1C(=O)N[C@@H](CO)C(=O)N[C@@H](CO)C(=O)NCC(=O)N[C@@H](C)C(=O)N1CCC[C@H]1C(=O)N1CCC[C@H]1C(=O)N1CCC[C@H]1C(=O)N[C@@H](CO)C(=O)O)[C@@H](C)O [PEP19] (H-FFYSSPSAYLK([AEEA-AEEA-γGlu-C18 diacid])TGGPSSGAPPPS-OH; N-terminus and C-terminus assumed)
- Emax (Mouse GLP-1R): 83 ± 3.2%
- Emax (Human GLP-1R): 89 ± 6.2%

Molecule: CC(C)C[C@H](NC(=O)[C@H](Cc1ccc(O)cc1)NC(=O)[C@H](C)NC(=O)[C@H](CO)NC(=O)[C@@H]1CCCN1C(=O)[C@H](CO)NC(=O)[C@H](CO)NC(=O)[C@H](Cc1ccc(O)cc1)NC(=O)[C@H](Cc1ccccc1)NC(=O)[C@@H](N)Cc1ccccc1)C(=O)N[C@@H](CCC(=O)O)C(=O)N[C@H](C(=O)O)[C@@H](C)O [PEP01]
- Kd (GLP-1R ECD): 740 nM

Molecule: CC(C)C[C@H](NC(=O)[C@H](CCCCN)NC(=O)[C@H](C)NC(=O)[C@H](CO)NC(=O)[C@@H]1CCCN1C(=O)[C@H](CO)NC(=O)[C@H](CO)NC(=O)[C@H](Cc1ccc(O)cc1)NC(=O)[C@H](Cc1ccccc1)NC(=O)[C@@H](N)Cc1ccccc1)C(=O)N[C@@H](CCC(=O)O)C(=O)N[C@H](C(=O)NCC(=O)NCC(=O)N1CCC[C@H]1C(=O)N[C@@H](CO)C(=O)N[C@@H](CO)C(=O)NCC(=O)N[C@@H](C)C(=O)N1CCC[C@H]1C(=O)N1CCC[C@H]1C(=O)N1CCC[C@H]1C(=O)N[C@@H](CO)C(N)=O)[C@@H](C)O [PEP13]
- EC50 (Mouse GLP-1R): 0.051 ± 0.009 nM
- Emax (Mouse GLP-1R): 110 ± 9.4%
- EC50 (Human GLP-1R): 0.064 ± 0.022 nM
- Emax (Human GLP-1R): 96 ± 4.1%

Molecule: CC[C@H](C)[C@H](NC(=O)[C@H](Cc1ccccc1)NC(=O)[C@H](CCC(=O)O)NC(=O)[C@H](CCCCN)NC(=O)[C@H](C)NC(=O)[C@H](C)NC(=O)[C@H](CCC(N)=O)NC(=O)CNC(=O)[C@H](CCC(=O)O)NC(=O)[C@H](CC(C)C)NC(=O)[C@H](Cc1ccc(O)cc1)NC(=O)[C@H](CO)NC(=O)[C@H](CO)NC(=O)[C@@H](NC(=O)[C@H](CC(=O)O)NC(=O)[C@H](CO)NC(=O)[C@@H](NC(=O)[C@H](Cc1ccccc1)NC(=O)[C@@H](NC(=O)CNC(=O)[C@H](CCC(=O)O)NC(=O)[C@H](C)NC(=O)[C@@H](N)Cc1c[nH]cn1)[C@@H](C)O)[C@@H](C)O)C(C)C)C(=O)N[C@@H](C)C(=O)N[C@@H](Cc1c[nH]c2ccccc12)C(=O)N[C@@H](CC(C)C)C(=O)N[C@H](C(=O)N[C@@H](CCCCN)C(=O)NCC(=O)N[C@@H](CCCNC(=N)N)C(N)=O)C(C)C [GLP-1, Glucagon-like peptide-1]
- IC50 (full-length GLP-1R): ~1 nM
- IC50 (isolated ECD (GLP-1R)): ~100 nM
